From patent publication US20250353873A1, “COMPOUNDS AND METHODS FOR MODULATING APOE EXPRESSION” (Ionis Pharmaceuticals, Inc., priority 2024, published 2025) come the findings set out here.

Data set [1] relates to human APOE RNA. As to the kind of experiment: Activity in APOE C57BL/6NTac-Apoeem7250 knock-in mice, single ICV bolus, 8 weeks (Example 11). Conditions: single ICV bolus 300 μg, 8 weeks post treatment, normalized to mouse Ppia. The data set is classed as in vivo. On the procedure:
(§1) Modified oligonucleotides described above were tested in the APOE C57BL/6NTac-Apoeem7250 knock-in mouse model described above.
Each mouse received a single ICV bolus of 300 μg of modified oligonucleotide. A group of 3-4 mice received a single ICV bolus with PBS as a negative control.
Eight weeks post treatment, mice were sacrificed and RNA was extracted from cortical brain tissue and spinal cord for quantitative real-time RT-PCR analysis of RNA expression of APOE using human primer probe set RTS3073 (described herein above). APOE RNA levels were normalized to mouse Ppia. Mouse Ppia was amplified using primer probe set m_cyclo24 (described herein above). Results are presented as percent human APOE RNA relative to the amount of human APOE RNA in PBS treated animals, (% control). Each experiment is identified in separate tables below.

For data set [2], the system named is human APOE RNA. Put plainly: Activity in APOE C57BL/6NTac-Apoeem7250 knock-in mice, single ICV bolus, 16 weeks (Example 12). It is filed as in vivo. Conditions: single ICV bolus 300 μg, 16 weeks post treatment, normalized to mouse Ppia. As for the experimental part:
as §1
APOE C57BL/6NTac-Apoeem7250 knock-in mice were divided into groups of 3-4 mice each. Each mouse received a single intracerebroventricular (ICV) bolus of 300 μg of modified oligonucleotide. A group of 4 mice received a single ICV bolus with PBS as a negative control.
Sixteen weeks post treatment, mice were sacrificed and RNA was extracted from cortical brain tissue and spinal cord for quantitative real-time RT-PCR analysis of RNA expression of APOE using primer probe set RTS3073 (described herein above). APOE RNA levels were normalized to mouse Ppia. Mouse Ppia was amplified using primer probe set m_cyclo24 (described herein above). Results are presented as percent human APOE RNA relative to the amount of human APOE RNA in PBS treated animals, (% control). Each experiment is identified in separate tables below.

Strand notation (5' to 3'): a small letter for the sugar, then the base; units joined by * are phosphorothioate-linked, units joined directly phosphodiester-linked; [ ] holds rarer units or linkages, { } end groups; capitals alone tell only the bases. [ms] = mesyl phosphoramidate linkage; e = 2'-O-(2-methoxyethyl) (MOE); k = constrained ethyl (cEt); [5mC] = 5-methylcytosine; d = 2'-deoxy (DNA)

With “1652900: 6-10-4 MOE gapmer GTGAATCTTTATTAAACTAG, linkages sooooossssssssssoss (antisense eG*eTeGeAeAeTd[5mC]*dT*dT*dT*dA*dT*dT*dA*dA*dA*e[5mC]eT*eA*eG) [compound 1652900]”, in the data set on human APOE RNA [1], the “APOE RNA (% control) Cortex” value was found to be 83 % control and the “APOE RNA (% control) Spinal Cord” value is 47 % control.
The matching figures for “1652918: 6-10-4 MOE gapmer GGTGAATCTTTATTAAACTA, linkages sooooozzzsssssssoss (antisense eG*eGeTeGeAeAdT[ms]d[5mC][ms]dT[ms]dT*dT*dA*dT*dT*dA*dA*eAe[5mC]*eT*eA) [compound 1652918]”: 91 % control and 47 % control.
The matching figures for “1652908: 5-10-5 MOE gapmer GGTGAATCTTTATTAAACTA, linkages soooszzzsssssssooss (antisense eG*eGeTeGeA*dA[ms]dT[ms]d[5mC][ms]dT*dT*dT*dA*dT*dT*dA*eAeAe[5mC]*eT*eA) [compound 1652908]”: 54 % control and 18 % control.
The like results for “1652910: 5-10-5 MOE gapmer GGTGAATCTTTATTAAACTA, linkages sooosszzsssssssooss (antisense eG*eGeTeGeA*dA*dT[ms]d[5mC][ms]dT*dT*dT*dA*dT*dT*dA*eAeAe[5mC]*eT*eA) [compound 1652910]” were, in that order, 82 % control and 39 % control.
“1652909: 5-10-5 MOE gapmer GGTGAATCTTTATTAAACTA, linkages soooszzzzssssssooss (antisense eG*eGeTeGeA*dA[ms]dT[ms]d[5mC][ms]dT[ms]dT*dT*dA*dT*dT*dA*eAeAe[5mC]*eT*eA) [compound 1652909]”: in the data set on human APOE RNA [1], the “APOE RNA (% control) Cortex” value is listed as 55 % control and the “APOE RNA (% control) Spinal Cord” value amounted to 23 % control.
Consider “1810063: mixed MOE/cEt gapmer CTTGGTGAATCTTTATTAAAC, sugar eeeeeeddddddddddkkeee, linkages ssoosszzzssssszsooss (e[5mC]*eT*eTeGeG*eT*dG[ms]dA[ms]dA[ms]dT*d[5mC]*dT*dT*dT*dA[ms]dT*kTkAeA*eA*e[5mC]) [compound 1810063]”, for which, in the data set on human APOE RNA [1], the “APOE RNA (% control) Cortex” value is reported as 43 % control and the “APOE RNA (% control) Spinal Cord” value turned out to be 40 % control.
The like results for “1652911: 5-10-5 MOE gapmer GGTGAATCTTTATTAAACTA, linkages sooosszzzssssssooss (antisense eG*eGeTeGeA*dA*dT[ms]d[5mC][ms]dT[ms]dT*dT*dA*dT*dT*dA*eAeAe[5mC]*eT*eA) [compound 1652911]” were, in that order, 130 % control and 57 % control.
The matching figures for “1810065: mixed MOE/cEt gapmer CTTGGTGAATCTTTATTAAAC, sugar eeeeekddddddddddeeeee, linkages ssoosszzzssssszsooss (listed as DNA, chemistry not fully specified) [compound 1810065]”: 29 % control and 21 % control.
The like results for “1652914: 5-10-5 MOE gapmer GGTGAATCTTTATTAAACTA, linkages soooszzssssssszooss (antisense eG*eGeTeGeA*dA[ms]dT[ms]d[5mC]*dT*dT*dT*dA*dT*dT*dA[ms]eAeAe[5mC]*eT*eA) [compound 1652914]” were, in that order, 108 % control and 43 % control.
Turning to “1652917: 6-10-4 MOE gapmer GGTGAATCTTTATTAAACTA, linkages sooooossssszsszzoss (antisense eG*eGeTeGeAeAdT*d[5mC]*dT*dT*dT*dA[ms]dT*dT*dA[ms]dA[ms]eAe[5mC]*eT*eA) [compound 1652917]”, in the data set on human APOE RNA [1], the “APOE RNA (% control) Cortex” value amounted to 107 % control and the “APOE RNA (% control) Spinal Cord” value is 41 % control.
The matching figures for “1652898: 6-10-4 MOE gapmer GGTGAATCTTTATTAAACTA, linkages sooooossssssssssoss (antisense eG*eGeTeGeAeAdT*d[5mC]*dT*dT*dT*dA*dT*dT*dA*dA*eAe[5mC]*eT*eA) [compound 1652898]”: 56 % control and 20 % control.
The matching figures for “1809691: mixed MOE/cEt gapmer CTTGGTGAATCTTTATTAA, sugar eeeekddddddddddkeek, linkages sosssszzzssssszoss (e[5mC]*eTeT*eG*kG*dT*dG[ms]dA[ms]dA[ms]dT*d[5mC]*dT*dT*dT*dA[ms]kTeT*eA*kA) [compound 1809691]”: 27 % control and 17 % control.
The like results for “1809745: mixed MOE/cEt gapmer CTTGGTGAATCTTTATTAAAC, sugar eeeeekddddddddddeeeee, linkages zsoooszzsssssszsoosz (e[5mC][ms]eT*eTeGeGkT*dG[ms]dA[ms]dA*dT*d[5mC]*dT*dT*dT*dA[ms]dT*eTeAeA*eA[ms]e[5mC]) [compound 1809745]” were, in that order, 26 % control and 16 % control.
On to “1652916: 5-10-5 MOE gapmer GGTGAATCTTTATTAAACTA, linkages soooszzzsssssszooss (antisense eG*eGeTeGeA*dA[ms]dT[ms]d[5mC][ms]dT*dT*dT*dA*dT*dT*dA[ms]eAeAe[5mC]*eT*eA) [compound 1652916]”, for which, in the data set with human APOE RNA [1], the “APOE RNA (% control) Cortex” value is listed as 128 % control and the “APOE RNA (% control) Spinal Cord” value was determined as 49 % control.
The like results for “1652905: 6-10-4 MOE gapmer GGTGAATCTTTATTAAACTA, linkages sooossssssssssssoss (antisense eG*eGeTeGeA*eA*dT*d[5mC]*dT*dT*dT*dA*dT*dT*dA*dA*eAe[5mC]*eT*eA) [compound 1652905]” were, in that order, 44 % control and 15 % control.
The matching figures for “1652912: 5-10-5 MOE gapmer GGTGAATCTTTATTAAACTA, linkages sooossssssszsszooss (antisense eG*eGeTeGeA*dA*dT*d[5mC]*dT*dT*dT*dA[ms]dT*dT*dA[ms]eAeAe[5mC]*eT*eA) [compound 1652912]”: 95 % control and 41 % control.
Regarding “1693100: 6-10-4 MOE gapmer CTTGGTGAATCTTTATTAAA, linkages sssssszzzssssszsoss (e[5mC]*eT*eT*eG*eG*eT*dG[ms]dA[ms]dA[ms]dT*d[5mC]*dT*dT*dT*dA[ms]dT*eTeA*eA*eA) [compound 1693100]”, in the data set with human APOE RNA [2], the “APOE RNA (% control) Cortex” value stood at 87 % control and the “APOE RNA (% control) Spinal Cord” value was found to be 51 % control.
As to “1693075: 5-10-5 MOE gapmer ACTTGGTGAATCTTTATTAA, linkages ssssssszzzzzsssssss (eA*e[5mC]*eT*eT*eG*dG*dT*dG[ms]dA[ms]dA[ms]dT[ms]d[5mC][ms]dT*dT*dT*eA*eT*eT*eA*eA) [compound 1693075]”, in the data set with human APOE RNA [2], the “APOE RNA (% control) Cortex” value turned out to be 87 % control and the “APOE RNA (% control) Spinal Cord” value worked out at 64 % control.
The matching figures for “1693141: 6-10-4 MOE gapmer ACTTGGTGAATCTTTATTAA, linkages ssssooszzzssssszsss (eA*e[5mC]*eT*eT*eGeGdT*dG[ms]dA[ms]dA[ms]dT*d[5mC]*dT*dT*dT*dA[ms]eT*eT*eA*eA) [compound 1693141]”: 82 % control and 66 % control.
The like results for “1693061: 5-10-5 MOE gapmer TTGGTGAATCTTTATTAAAC, linkages sssoszzzsssszzsssss (antisense eT*eT*eG*eGeT*dG[ms]dA[ms]dA[ms]dT*d[5mC]*dT*dT*dT[ms]dA[ms]dT*eT*eA*eA*eA*e[5mC]) [compound 1693061]” were, in that order, 91 % control and 99 % control.
With “1693069: 5-10-5 MOE gapmer ACTTGGTGAATCTTTATTAA, linkages ssssosszzzszsssssss (antisense eA*e[5mC]*eT*eT*eGdG*dT*dG[ms]dA[ms]dA[ms]dT*d[5mC][ms]dT*dT*dT*eA*eT*eT*eA*eA) [compound 1693069]”, in the data set with human APOE RNA [2], the “APOE RNA (% control) Cortex” value is 78 % control and the “APOE RNA (% control) Spinal Cord” value is reported as 66 % control.
The like results for “1693068: 5-10-5 MOE gapmer ACTTGGTGAATCTTTATTAA, linkages sssossszzzszsssssss (antisense eA*e[5mC]*eT*eTeG*dG*dT*dG[ms]dA[ms]dA[ms]dT*d[5mC][ms]dT*dT*dT*eA*eT*eT*eA*eA) [compound 1693068]” were, in that order, 86 % control and 72 % control.
